US20250188044A1 (HARBIN MEDISAN PHARMACEUTICAL CO., LTD., priority 2021, published 2025)
Like-named read-outs stand apart in the source and are kept apart here.

How the values were obtained:
[1] = Pharmacokinetic evaluation in rats; type: in vivo, SD rats
Experimental: Animals: 6 male SD rats, SPF grade, sourced from the animal repository of Shanghai Medicilon research institution.
The dose in the oral administration group was 10 mpk, and the dose in the intravenous injection group was 2 mpk.
All samples were centrifuged at 18,000 g for 7 min in a low-temperature centrifuge, and plasma was isolated. The content of the compound in the plasma was determined by LC-MS/MS-18, and relevant pharmacokinetic parameters were calculated from the plasma concentration data at different time points.

PPARα = biological target: T1, PPARα (Homo sapiens, UniProt Q07869); assay: Gal4-PPARα(LBD) reporter gene agonistic activity assay in Cos-7 cells; type: cell-based; details: for EC50: Cos-7 cells, Gal4-PPARα(LBD) reporter, 16 h, 100% = GW7647 10 nM; for agonistic activity for PPARα (EC50 level, in words): Cos-7 reporter assay
T1 construct: hPPARα (279aa-580aa); expressed in transfected cells; host or cells: Cos-7
T1 sequence (Q07869 167-468 limits assumed): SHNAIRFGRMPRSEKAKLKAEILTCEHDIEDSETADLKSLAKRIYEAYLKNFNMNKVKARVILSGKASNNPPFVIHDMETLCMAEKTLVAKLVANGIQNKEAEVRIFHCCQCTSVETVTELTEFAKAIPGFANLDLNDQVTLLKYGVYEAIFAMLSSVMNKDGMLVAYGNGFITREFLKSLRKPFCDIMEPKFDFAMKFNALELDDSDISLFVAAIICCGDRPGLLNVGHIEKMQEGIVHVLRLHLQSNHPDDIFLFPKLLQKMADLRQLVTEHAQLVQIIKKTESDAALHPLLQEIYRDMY
Experimental: (§1) Cos-7 cells (African green monkey kidney fibroblasts, commonly used tool cells) were cultured in a 10 cm cell culture dish in a DMEM complete medium containing 10% fetal bovine serum. When the cells grew to a density of about 70%, the medium was replaced with a fresh medium for later transfection. […] The plasmid working solution was then added to the cell culture dish for cell transfection. […] Test compounds were prepared into appropriate test concentrations with a complete medium and then added to the 96-well plate. […] 10 μL of lysate was pipetted into a white opaque 384-well plate, and then 10 μL of reporter gene assay buffer (purchased from Shanghai Beyotime Biological Tech. Co., Ltd.) was added. The bioluminescence was detected by using a multimode microplate reader, and the corresponding half maximal effective concentration (EC50) value was calculated according to the detection value.

[2] = Metabolic stability in human liver microsomes; type: in vitro ADME; details: for half-life: human liver microsomes 0.75 mg/mL, NADPH, 0-60 min
Experimental: A 500 μM solution of the compound in acetonitrile was prepared and diluted to obtain a 1.5 μM drug working solution with a 0.1 M potassium phosphate solution. The drug working solution was co-incubated with a human liver microsome working solution at a final concentration of 0.75 mg/mL and an NADPH solution (final concentration: 550 μM), and the incubation was terminated by adding an acetonitrile solution at 0 min, 15 min, 30 min, 45 min, and 60 min. The residual amount of the compound that remained in the system at each time point was detected by using LC/MS. The absolute value k of the slope was determined by plotting the natural logarithm of the percentage of the residual amount of the compound with the time, and the calculation was performed according to the formula: T1/2 (half-life)=ln2/k=0.693/k.

PPARδ = biological target: T2, PPARδ (Homo sapiens, UniProt Q03181); assay: Gal4-PPARδ(LBD) reporter gene agonistic activity assay in Cos-7 cells; type: cell-based; details: for agonistic activity for PPARδ (EC50 level, in words): Cos-7 reporter assay
T2 construct: expressed in transfected cells; host or cells: Cos-7
T2 sequence (Q03181 139-441 limits assumed): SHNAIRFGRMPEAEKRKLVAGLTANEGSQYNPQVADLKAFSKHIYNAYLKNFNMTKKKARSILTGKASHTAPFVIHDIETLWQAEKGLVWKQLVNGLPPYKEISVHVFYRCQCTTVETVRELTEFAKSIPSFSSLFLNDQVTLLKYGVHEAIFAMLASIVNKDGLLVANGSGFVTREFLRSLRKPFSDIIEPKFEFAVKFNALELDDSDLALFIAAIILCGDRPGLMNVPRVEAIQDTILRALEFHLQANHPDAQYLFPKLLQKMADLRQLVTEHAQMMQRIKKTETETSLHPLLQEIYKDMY
Experimental: as §1

THP1 cells = assay: LPS-induced inflammation-associated gene expression of THP1 cells (qPCR); type: cell-based, human; details: THP1 monocyte-derived macrophages, 8, 40, and 200 nM, 6 h, qPCR (FIG. 3)
Experimental: THP1 cells (human monocytes) were cultured in a 6-well cell culture plate in a medium containing 100 ng/mL phorbol ester (purchased from MCE) and stimulated for differentiation for 48 h.
The medium was replaced with a fresh complete medium for the blank control group, the medium was replaced with a complete medium containing […] LPS for the LPS group, and the medium was replaced with 8, 40, and 200 nM drug-containing media prepared with a complete medium containing […] LPS for the administration group. After 6 h of treatment, the medium was discarded. Quantitative PCR was performed according to the procedures in Example 207 to detect the expression of IL6 and IL12B, which are inflammatory factors playing an important role in inflammatory response (the primer sequences are shown in Table 8). […] Some other compounds of the present invention also have similar anti-inflammatory activity.

HepG2 cells = assay: Lipid metabolism-associated gene expression of HepG2 cells (qPCR); type: cell-based, human; details: 8 nM, nM, and 200 nM, 12 h, vs. blank control (FIGS. 1 and 2)
Experimental: HepG2 cells (human hepatoma cells) were cultured in a 6-well cell culture plate and subjected to adherent culture overnight. […] The old medium was discarded and replaced with drug-containing medium of different concentrations (complete medium without the compound for the blank control group). After dosing, the cells were incubated for 12 h. The medium was discarded and total RNA was extracted by the phenol-chloroform method. After reverse transcription, the real-time quantitative fluorescent PCR experiment (RNA extraction, reverse transcription, quantitative PCR reagents were all purchased from Nanjing Vazyme Biotech Co., Ltd.) was performed using ACTB as an internal reference, and the expression of PDK4, ACADVL, and CPT1A, which are important genes in oxidative metabolism of lipids, was detected according to the steps in the product instructions (the primer sequences are shown in Table 7). […] Some other compounds of the present invention also have similar activity.

[3] = Pharmacokinetic evaluation in mice; type: in vivo, C57BL/6J mice; details: for AUC(0-inf): read-out: Area under the curve AUC(0-∞); for half-life: read-out: Half-life T1/2 (converted); for Cmax: read-out: Peak concentration Cmax; for Tmax: read-out: Time-to-peak Tmax
Text: Animals: 6 male C57BL/6J mice, SPF grade, sourced from the animal repository of Shanghai Medicilon research institution.
Grouping: Mice were divided into 2 groups of 3 mice each, one group was an oral administration group and the other group was an intravenous injection administration group. The dose in the oral administration group was 10 mpk, and the dose in the intravenous injection group was 2 mpk.
Experimental method: After the intravenous injection administration group was subjected to administration by injection via the tail vein, approximately 0.03 mL of blood was collected via the orbit at 0.083 h, 0.25 h, 0.5 h, 1 h, 2 h, 4 h, 8 h, and 24 h, and an ethylenediaminetetraacetic acid dipotassium salt was quickly added for anticoagulation and the blood was placed on ice after the blood collection. The mice in the oral administration group were fasted for 12 h before administration and fed 4 h after administration; after oral administration, approximately 0.03 mL of blood was collected via the orbit at 0.25 h, 0.5 h, 1 h, 2 h, 4 h, 6 h, 8 h, and 24 h, and an ethylenediaminetetraacetic acid dipotassium salt was quickly added for anticoagulation and the blood was placed on ice after the blood collection. All samples were centrifuged at 18,000 g for 7 min in a low-temperature centrifuge, and plasma was isolated. The content of the compound in the plasma was determined by LC-MS/MS-18, and relevant pharmacokinetic parameters were calculated from the plasma concentration data at different time points.

[4] = male, C57BL/6J, mouse, plasma, 2 mg/kg, intravenous injection, 2 mpk
[5] = male, C57BL/6J, mouse, plasma, 10 mg/kg, oral administration, 10 mpk

## Cc1cc(Cn2ncn(-c3ccc(OC(F)(F)F)cc3)c2=O)cc(C(F)(F)F)c1OC(C)(C)C(=O)O [Compound 163, 2-Methyl-2-(2-methyl-4-((5-oxo-4-(4-(trifluoromethoxy)phenyl)-4,5-dihydro-1H-1,2,4-triazol-1-yl)methyl)-6-(trifluoromethyl)phenoxy)propionic acid]
[1]
  pharmacokinetic properties (in words): relatively good pharmacokinetic properties
[1]; intravenous injection, 2 mpk
  Area under the curve AUC(0-∞): 15851.97 ± 3557.93 ng·h/mL
  Half-life T1/2: 12.71 ± 8.67 h
  Peak concentration Cmax: 10864.30 ± 719.85 ng/mL
  Time-to-peak Tmax: 0.08 ± 0.00 h
[1]; oral administration, 10 mpk
  Area under the curve AUC(0-∞): 39483.83 ± 5363.60 ng·h/mL
  Bioavailability F: 53.24%
  Half-life T1/2: 6.86 ± 0.34 h
  Peak concentration Cmax: 5474.28 ± 1232.94 ng/mL
  Time-to-peak Tmax: 0.25 ± 0.00 h
PPARα
  EC50: 35 nM
  agonistic activity for PPARα (EC50 level, in words): at nanomolar levels
[2]
  half-life: > 2 h
PPARδ
  EC50: 6 nM
  agonistic activity for PPARδ (EC50 level, in words): at nanomolar levels

## Cc1cc(Cn2ncn(-c3ccc(C(F)(F)F)cc3)c2=O)cc(C)c1OC(C)(C)C(=O)O [Compound 57, 2-(2,6-Dimethyl-4-((5-oxo-4-(4-(trifluoromethyl)phenyl)-4,5-dihydro-1H-1,2,4-triazol-1-yl)methyl)phenoxy)-2-methylpropionic acid]
PPARα
  EC50: 26 nM
  agonistic activity for PPARα (EC50 level, in words): at nanomolar levels
THP1 cells
  LPS-induced expression of IL6 and IL12B: resist LPS-induced up-regulation of IL6 and IL12B of macrophages
HepG2 cells
  expression of PDK4, ACADVL, and CPT1A: improve the expression of PDK4, ACADVL, and CPT1A in a dose-dependent manner with significance
[2]; human liver microsomes
  metabolic stability in human liver microsomes (in words): very good metabolic stability in human liver microsomes
[2]
  half-life: > 2 h
PPARδ
  EC50: 2 nM
  agonistic activity for PPARδ (EC50 level, in words): at nanomolar levels
[3]
  pharmacokinetic properties (in words): good pharmacokinetic properties
[3]; [4]
  AUC(0-inf): 4360 ± 522 ng·h/mL
  half-life: 9.53 ± 3.29 h
  Cmax: 7240 ± 269 ng/mL
  Tmax: 0.08 h
[3]; [5]
  AUC(0-inf): 18600 ± 2760 ng·h/mL
  half-life: 7.41 ± 2.05 h
  Cmax: 14000 ± 2050 ng/mL
  Tmax: 0.25 h
[3]; male, C57BL/6J, mouse, plasma, 10 mg/kg, oral administration, 10 mpk, read-out: Bioavailability F
  bioavailability: 87.3%
